Assay results reported in the supplement of paper PMC10307832.

Experiments:
Assay in all cases: relative viability (nuclei count vs DMSO), 5 days (fraction); higher = more cells survive
[1] = tested on: BEN
How it was run: (§1)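 One day after seeding in 1536-well plates, lung cancer cell lines were dosed by pin tool. Dosing was either single-drug or a fixed anchor-drug dose plus five library-drug doses (not always all listed) in √10 steps. After 5 days, nuclei were stained in one fix-and-stain step and counted on 4× images, and relative viability is the nuclei count of treated wells over that of vehicle wells, given as the median of duplicate plates.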

[2] = tested on: EMC-BAC-2
How it was run: as §1

[3] = tested on: H3255
How it was run: as §1

[4] = tested on: HOP-62
How it was run: as §1

[5] = tested on: LCLC-97TM1
How it was run: as §1

[6] = tested on: LXF-289
How it was run: as §1

[7] = tested on: NCI-H1563
How it was run: as §1

[8] = tested on: NCI-H1650
How it was run: as §1

[9] = tested on: NCI-H1915
How it was run: as §1

[10] = tested on: NCI-H1993
How it was run: as §1

[11] = tested on: NCI-H2009
How it was run: as §1

[12] = tested on: NCI-H2023
How it was run: as §1

COc1cc(N2CCC(C(N)=O)CC2)ccc1Nc1nc(N)c(Cl)c(Nc2ccccc2S(=O)(=O)C(C)C)n1 [HG-5-88-01] + CS(=O)(=O)N1CCN(Cc2cc3nc(-c4cccc5[nH]ncc45)nc(N4CCOCC4)c3s2)CC1 [Pictilisib] (partner 1 µM)
relative viability ([1]; first compound 0.04 µM): 0.504
relative viability ([1]; first compound 0.1265 µM): 0.523
relative viability ([1]; first compound 0.4 µM): 0.544
relative viability ([1]; first compound 1.265 µM): 0.468
relative viability ([1]; first compound 4 µM): 0.447
relative viability ([2]; first compound 0.04 µM): 0.531
relative viability ([2]; first compound 0.1265 µM): 0.509
relative viability ([2]; first compound 0.4 µM): 0.495
relative viability ([2]; first compound 1.265 µM): 0.554
relative viability ([2]; first compound 4 µM): 0.505
relative viability ([3]; first compound 0.04 µM): 0.479
relative viability ([3]; first compound 0.1265 µM): 0.484
relative viability ([3]; first compound 0.4 µM): 0.449
relative viability ([3]; first compound 4 µM): 0.317
relative viability ([4]; first compound 0.04 µM): 0.493
relative viability ([4]; first compound 0.1265 µM): 0.765
relative viability ([4]; first compound 0.4 µM): 0.827
relative viability ([4]; first compound 1.265 µM): 0.892
relative viability ([4]; first compound 4 µM): 0.936
relative viability ([5]; first compound 0.04 µM): 0.156
relative viability ([5]; first compound 0.1265 µM): 0.185
relative viability ([5]; first compound 0.4 µM): 0.146
relative viability ([5]; first compound 1.265 µM): 0.213
relative viability ([5]; first compound 4 µM): 0.135
relative viability ([6]; first compound 0.04 µM): 0.819
relative viability ([6]; first compound 0.1265 µM): 0.796
relative viability ([6]; first compound 0.4 µM): 0.821
relative viability ([6]; first compound 1.265 µM): 0.81
relative viability ([6]; first compound 4 µM): 0.736
relative viability ([7]; first compound 0.04 µM): 0.66
relative viability ([7]; first compound 0.1265 µM): 0.671
relative viability ([7]; first compound 0.4 µM): 0.638
relative viability ([7]; first compound 1.265 µM): 0.651
relative viability ([7]; first compound 4 µM): 0.634
relative viability ([8]; first compound 0.04 µM): 0.583
relative viability ([8]; first compound 0.1265 µM): 0.551
relative viability ([8]; first compound 0.4 µM): 0.565
relative viability ([8]; first compound 1.265 µM): 0.519
relative viability ([8]; first compound 4 µM): 0.355
relative viability ([9]; first compound 0.04 µM): 0.92
relative viability ([9]; first compound 0.1265 µM): 0.973
relative viability ([9]; first compound 0.4 µM): 0.95
relative viability ([9]; first compound 1.265 µM): 1.13
relative viability ([9]; first compound 4 µM): 0.806
relative viability ([10]; first compound 0.04 µM): 0.689
relative viability ([10]; first compound 0.1265 µM): 0.829
relative viability ([10]; first compound 0.4 µM): 0.606
relative viability ([10]; first compound 1.265 µM): 1.04
relative viability ([10]; first compound 4 µM): 0.873
relative viability ([11]; first compound 0.04 µM): 0.771
relative viability ([11]; first compound 0.1265 µM): 0.882
relative viability ([11]; first compound 0.4 µM): 0.693
relative viability ([11]; first compound 1.265 µM): 0.793
relative viability ([11]; first compound 4 µM): 0.631
relative viability ([12]; first compound 0.04 µM): 0.222
relative viability ([12]; first compound 0.1265 µM): 0.245
